Assay results from patent US8633177B2, “Nitroxyl (HNO) releasing compounds and uses thereof in treating diseases” (The United States of America, as represented by the …, priority 2010, dated 2014).

What was measured:
[1] = test system: MB-468 cells; assay: MTT cell survival, MDA-MB-468; assay type: cell-based, human; conditions: MTT assay
Protocol: (§1) MDA-MB-231, MCF-7 and MDA-MB-468, human breast carcinoma cell lines and MCF-10A, breast […] (American Type Culture Collection, Manassas, Va.) were grown as monolayers in RPMI 1640 supplemented with 10% FCS (Hyclone), penicillin (50 units/ml), streptomycin ([…]; Life Technologies, Inc., Grand Island, N.Y.) and endothelial growth media (Lonanza) respectively. Cells were seeded at a density of 1×10^6 cells/100-cm^2 culture dish and incubated at 37° C. in 5% CO2 and 80% relative humidity. Single-cell suspensions were obtained by trypsinization (0.05% trypsin/EDTA), and cells were counted using a Beckman cell counter.
(§2) 1000× stock solutions aspirin, of a DEA/NO-ASA, and IPA/NO-ASA were made in DMSO and final concentration in the media or PBS was adjusted to 0.1% DMSO.
(§3) The effect of NONO-aspirin on cell proliferation was studied using an MTT assay. The effect of DEA/NO-ASA, IPA/NO-ASA, aspirin, IPA/NO and DEA/NO was measured using the MTT assay. Cells were plated at a concentration of 8,000-10,000 cells per well in a 96 well plate and grown overnight. Cells were treated with different concentrations of the compounds and controls for 48 h. After 48 h, a solution of 5 mg/ml MTT was added to each well and incubated for 1 h. Then the media was removed from each well and 100 uL DMSO was added to each well and the absorbance was read at 550 nm. […]

[2] = test system: caspase-3; assay: Caspase-3 fluorescence assay, MCF-7; assay type: cell-based, human; conditions: 12 h
Protocol: The caspase-3 activity in the presence of IPA/NO-ASA and DEA/NO-ASA was measured using caspase-3 fluorescence assay kit (Cat No. 10009135, Cayman Chemical). Cells were plated at a concentration of 50,000 cells per well in a 96 well plate and grown overnight. Then the cells were treated with different concentrations of the compounds and controls for 12 h. After 12 h, the plate was centrifuged at 800 g and the media was removed by aspiration. 100 μL of lysis buffer was added to each well and the plate was incubated for […] at room temperature. 100 μL of a caspase-3 substrate solution was added to each well and incubated for 30 min after which the fluorescence was read at excitation of 485 nm and emission of 535 nm.

[3] = test system: stomach ulcers; assay: Ulcerogenicity (ulcer index) after oral administration; assay type: in vivo, rats; conditions: for Ulcer Index: 6 h after oral administration, equivalent to 250 mg/kg aspirin; for UI (ulcer index): as given in the text
Protocol: Ulcerogenicity was evaluated 6 h after oral administration of 250 mg/kg of aspirin (250 mg/kg) and an equivalent amount of the corresponding test compound. The compounds were suspended in 1.7 mL of a 1% methylcellulose solution and administered. The control rats received oral administration of a vehicle (1.7 mL of 1.0% methylcellulose solution). The rats were euthanized in a CO2 chamber and their stomachs and placed on ice and then the ulcers were studied using magnifying glass.

[4] = NO release measured with NO specific electrode, 2% serum; assay type: physicochemical; conditions: 100 μM; for NO release: 2% serum; for [NO]pA: phosphate buffer pH 7.4, 2% serum
Protocol: The release of NO was evaluated using an NO specific electrode. The NO electrode was stabilized in phosphate buffer pH 7.4 containing 2% serum. Compounds 4 and 8 in DMSO were added and the NO signal was measured. The experiment was repeated in the presence of 1 mM sodium ferricyanide.
Since there is no direct method for detection of HNO, 1 mM ferricyanide solution was used, which converts HNO to NO that can then be detected using NO electrode. K3Fe(CN)6+HNO ? NO

[5] = Kinetic profile of NO and HNO release / stability in buffer; assay type: physicochemical; conditions: phosphate buffer pH 7.4, several hours
Protocol: The newly synthesized HNO-releasing aspirin (IPA/NO-aspirin, 4) and NO-releasing aspirin (DEA/NO-aspirin, 8) were evaluated for the kinetic profile of NO and HNO release in buffer and cells.

[6] = test system: E-cadherin; assay: E-cadherin expression in MDA-MB-231 cells; assay type: cell-based, human; conditions: MDA-MB-231, 100 μM, mRNA and protein level
Protocol: MDA-MB-231 cells were plated at a concentration of 500,000 cells per plate on 60 mm plate and grown overnight. They were then treated with 100 μM of IPA/NO-aspirin, DEA/NO-aspirin, IPA/NO, DEA/NO and aspirin for 1 to 24 h.

[7] = test system: carrageenan induced rat paw edema; assay: Carrageenan induced rat paw edema assay; assay type: in vivo, Sprague-Dawley rats; conditions: for Anti-inflammatory Activity ID50: oral, 3 h after administration
Protocol: Anti-inflammatory properties were studied in vivo in a carrageenan induced rat paw edema assay after 3 h of administration of the compound orally to Sprague-Dawley rats.
To verify whether IPA/NO-aspirin and DEA/NO-aspirin retain the anti-inflammatory properties of their parent NSAID in vivo, aspirin, PA/NO-aspirin or DEA/NO-aspirin was administered to rats with paw edema induced by carrageenan.

[8] = test system: MCF-10A; assay: MTT cell survival, MCF-10A; assay type: cell-based; conditions: MCF-10A normal mammary epithelial cell line, 48 h
Protocol: as §1, §2, §3

[9] = test system: reactive oxygen species (ROS); assay: ROS level with DCF; assay type: cell-based; conditions: 100 μM
Protocol: To investigate the role of ROS in apoptosis, the ROS level was studied in the presence of the compounds in a time dependent manner using 2′,7′-dichlorofluorescein (DCF) in all four cell lines. Cells were plated at a concentration of 30,000 cells per well and grown overnight. Cells were treated with 100 μM DCF (Sigma Aldrich) and incubated for 30 min at 37° C. The cells were then washed five times with PBS pH 7.4 and 100 μM of IPA/NO-aspirin, DEA/NO-aspirin, IPA/NO, DEA/NO and aspirin were added.

[10] = NO quantified by chemiluminescence during hydrolysis; assay type: physicochemical; conditions: 1 mM ferricyanide solution
Protocol: In addition to HNO measurements as described above by reductive nitrosylation of metmyoglobin, NO was quantified by chemiluminescence assay, N2O by gas chromatography, and nitrite ion by the Griess assay.
Detection of HNO was also carried out using the chemiluminescence method in, 1 mM ferricyanide solution.

Compound | IC50 [1] | Caspase-3 Activity ([2]; MCF-7, 25 μM) | Caspase-3 Activity ([2]; MCF-7, 50 μM) | Caspase-3 Activity ([2]; MCF-7, 100 μM) | Ulcer Index [3] | UI (ulcer index) [3] | NO release [4] | [NO]pA ([4]; +Ferricyanide 1 mM) | [NO]pA ([4]; without ferricyanide) | stability in phosphate buffer [5] | E-cadherin level [6] | potency relative to aspirin ([7]; less potent than parent drug) | Anti-inflammatory Activity ID50 [7] | cytotoxicity [8] | ROS level [9] | NO/HNO release by chemiluminescence [10]
CCN(CC)[N+]([O-])=NOCOC(=O)c1ccccc1OC(C)=O [DEA/NO-aspirin, O^2-(Acetylsalicyloyloxymethyl)-1-(N,N-Diethylamino)-diazen-1-ium-1,2-diolate] | 85 µM | 0.30 U/mL | 0.35 U/mL | 0.27 U/mL | 0 mg/kg | 0 | readily released NO | 5000 pA | 4600 pA | relatively stable | increased E-cadherin expression | 1.3 times | 168.6 mg/kg | none of the compounds showed any significant cytotoxicity | much lower | shows NO release
CC(=O)Oc1ccccc1C(=O)OCON=[N+]([O-])NC(C)C [IPA/NO-aspirin, O^2-(Acetylsalicyloyloxymethyl)-1-(N-isopropylamino)-diazen-1-ium-1,2-diolate] | 80 µM | 0.30 U/mL | 0.60 U/mL | 0.58 U/mL | 3.3 ± 3 mg/kg | 3.0+3.0 | significantly lower NO production | 2100 pA | 1000 pA | relatively stable | did not show any significant change |  | 121.3 mg/kg | none of the compounds showed any significant cytotoxicity | significant increase in ROS level | showed both NO and HNO release
